This is an account of results in US12606556B2, “TYK-2 inhibitor” (BEIGENE, LTD., priority 2020, dated 2026).

pIC50: −log10 of the molar value. Bounds are passed on as bounds.

Experiment [1] deals with T1, JAK1-JH2 protein (aa 561-860, in-house) (Homo sapiens, UniProt P23458).
T1 construct: JAK1-JH2 protein (aa 561-860, in-house); made in house
Nature of the experiment: JAK1-JH2 biochemical assay (HTRF, blocking of JAK1-JH2 protein with its probe). It is filed as binding. The note with it: 1.17 nM recombinant JAK1-JH2, Probe 2. The method, then: Assay B: JAK1-JH2 Biochemical Assay
Compounds disclosed herein were tested for blocking of JAK1-JH2 protein (aa 561-860, in-house) with its probe in an assay based on Homogeneous Time Resolved Fluorescence. Compound dilution is done according to the following protocol: (1) Prepare 500× compounds solution in DMSO from 500 uM by 5-fold dilution, total 10 doses were included; (2) Prepare 10× compounds solution in an assay buffer containing 20 mM HEPES, pH 7.5, 10 mM MgCl2, 0.005% BSA, 2 mM DTT, 0.015% Brij-35 by transferring 1 μl serial 500× stock solution into 49 μl assay buffer. 4 μL of 1.17 nM recombinant JAK1-JH2 protein was pre-incubated with 1 μl of 10×serial dilution of compounds at room temperature for 0.5 hour. […] The HTRF signals (ex337 nm, em620 nm/665 nm) were read on BMG PHERAstar FS instrument. The inhibition percentage of JAK1 interaction with its probe in presence of increasing concentrations of compounds was calculated based on the ratio of fluorescence at 615 nm to that at 665 nm. The IC50 for each compound was derived from fitting the data to the four-parameter logistic equation by Dotmatics.
On the technique in general: Time-resolved FRET reads energy transfer from a long-lived donor to a nearby acceptor.

For experiment [2], the target named is T2, TYK2-JH2 (aa 575-869, in-house) protein (Homo sapiens, UniProt P29597).
T2 construct: TYK2-JH2 (aa 575-869, in-house) protein; made in house
T2 sequence (P29597 575-869): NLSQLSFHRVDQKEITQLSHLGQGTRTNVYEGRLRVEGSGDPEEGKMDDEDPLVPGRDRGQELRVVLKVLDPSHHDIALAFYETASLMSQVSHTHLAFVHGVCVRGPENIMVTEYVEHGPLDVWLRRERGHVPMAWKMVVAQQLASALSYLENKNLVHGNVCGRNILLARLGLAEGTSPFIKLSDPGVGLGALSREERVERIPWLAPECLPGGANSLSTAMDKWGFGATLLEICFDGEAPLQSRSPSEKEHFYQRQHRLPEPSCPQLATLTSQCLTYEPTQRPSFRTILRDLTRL
Nature of the experiment: TYK2-JH2 biochemical assay (HTRF, blocking of TYK2-JH2 protein with its probe). The format is binding. Particulars: for pIC50: HTRF, 0.2 nM recombinant TYK2-JH2, Probe 1; for Biochemical assay Selectivity fold (TYK2/JAK1): TYK2-JH2 vs JAK1-JH2 biochemical IC50. The method, then:
Assay A: TYK2-JH2 Biochemical Assay
Compounds disclosed herein were tested for blocking of TYK2-JH2 (aa 575-869, in-house) protein with its probe in an assay based on Homogeneous Time Resolved Fluorescence.
Compound dilution is done according to the following protocol: (1) Prepare 500× compounds solution in DMSO from 500 uM by 5-fold dilution, total 10 doses were included; (2) Prepare 10× compounds solution in an assay buffer containing 20 mM HEPES, pH 7.5, 10 mM MgCl2, 0.005% BSA, 2 mM DTT, 0.015% Brij-35 by transferring 1 μl serial 500× stock solution into 49 μl assay buffer. 4 μl of 0.2 nM recombinant TYK2-JH2 protein was pre-incubated with 1 μl of 10×serial dilution of compounds at room temperature for 0.5 hour. Then 5 μl of 10 nM in-house Probe 1 (6-((3,5-dimethylphenyl)amino)-8-((4,26-dioxo-30-((3aS,4S,6aR)-2-oxohexahydro-1H-thieno[3,4-d]imidazol-4-yl)-7,10,13,16,19,22-hexaoxa-3,25-diazatriacontyl)amino)imidazo[1,2-b]pyridazine-3-carboxamide, KD=10 nM), 5 μl Mab Anti-6His Tb cryptate Gold (Cat: 61HI2TLB, Cisbio Bioassays) and Streptavidin-XL665(Cat: 610SAXLB, Cisobio Bioassays) mixture were added to plate and further incubated at room temperature for 1 hour. The HTRF signals (ex337 nm, em620 nm/665 nm) were read on BMG PHERAstar FS instrument. The inhibition percentage of TYK2 interaction with its probe in presence of increasing concentrations of compounds was calculated based on the ratio of fluorescence at […]. The IC50 for each compound was derived from fitting the data to the four-parameter logistic equation by Dotmatics.

Experiment [3] deals with JAK2, TYK2/p-STAT4 (Tyr693) activated by IL-12 in NK-92 cell line. Nature of the experiment: IL-12-JAK2, TYK2/p-STAT4 (Tyr693) inhibition cellular assay. The note with it: for pIC50: NK92, 0.5 h, NK-92 cells, IL-12 40 ng/ml, 30 min, read-out: Cellular assay pSTAT4/IL-12 IC50; for Cellular assay Selectivity fold (TYK2/JAK1): pSTAT4/IL-12 vs pSTAT3/IL-6 cellular IC50. The format is cell-based. The source says: Assay C: IL-12-JAK2, TYK2/p-STAT4 (Tyr693) Inhibition IC50 Cellular Assay
To evaluate the inhibition effect of compounds disclosed herein on JAK2, TYK2/p-STAT4 (Tyr693) activated by IL-12 in NK-92 cell line, NK-92 cells were collected and washed 3 times by DPBS and resuspended in MEM-α(GIBCO,Cat #12561056) with 10% FBS (Gibco, Cat #10099, Lot #1891605), without IL-2 (R&D systems,Cat #202-IL), starved overnight. Cells were collected and resuspended in 1640 medium (phenol red free, Gibco, Cat #11835-030) with 0.1% BSA, and 12.5 μl/5×10^4/well cell suspension were seeded to the 96-well plate (Corning, Cat #3799). Then cells were treated with compounds diluted in 0.2% DMSO 1640 medium, at 37° C., 1 h. Dilution is done according to the following protocol: (1) make 500× compounds solution in DMSO from 5 mM by 4-fold dilution, total 8 doses were included; (3) make 2× compounds solution in assay medium by transferring 0.5 μl serial 500× stock solution into 125 μl assay medium; (4) 15 μl of 2× serial solution is added to cells and incubate at 37° C. for 1 h, the final compound conc. is 10000,2500,625,156.25,39,9.8,2.4 and 0.61 nM, respectively. After 1 h, cells were treated with 2.5 μl medium containing IL-12 at 37° C. (R&D systems, Cat #219-IL-005, final conc.40 ng/ml), 30 min. Following cells were lysed with 7.5 μl lysis buffer at RT, shaking on shaker for 1 h. 10 μL of cell lysate were transferred to a PE 384-well Proxiplate detection plate, and 5 μL of pre-mixed Alphascreen beads were added to each well. Covered the plate with a plate sealer, span 1000 rpm for 1 min, mix, Incubated overnight at room temperature. Read on BMG PheraStar with Alphascreen protocol. IC 50 values were calculated by fitting dependent data to the four-parameter logistic model using dotmatics software. The assay was performed by using AlphaLISA SureFire Ultra p-STAT4 (Tyr693) Assay Kit—High Volume (PE, Cat #ALSU-PST4-A-HV).

Experiment [4] relates to JAK1/p-STAT3(Tyr705) activated by IL-6 in TF-1 cell line. Nature of the experiment: IL-6-JAK1/p-STAT3(Tyr705) inhibition cellular assay. The format is cell-based. Particulars: Homo sapiens, 0.5 h; TF-1 cells, IL-6 50 ng/ml, 30 min; read-out: Cellular assay pSTAT3/IL-6 IC50. The source says:
Assay D: IL-6-JAK1/p-STAT3(Tyr705) Inhibition IC50 Cellular Assay
To evaluate the inhibition effect of compounds disclosed herein on JAK1/p-STAT3(Tyr705) activated by IL-6 in TF-1 cell line, TF-1 cells were collected and washed 3 times by DPBS and resuspended in RPMI-1640 (phenol red free, Gibco, Cat #11835-030) with 0.1% FBS (Gibco, Cat #10099, Lot #1891605), without GM-CSF(R&D systems,Cat #215-GM-050), starved overnight. Cells were collected and resuspended in 1640 medium (phenol red free, Gibco, Cat #11835-030) with 0.1% BSA, and 12.5 μl/10×10^4/well cell suspension were seeded to the 96-well plate (Corning, Cat #3799). Then cells were treated with compounds diluted in 0.2% DMSO 1640 medium, at 37° C., 1 h. Dilution is done according to the following protocol: (1) make 500× compounds solution in DMSO from 5 mM by 4-fold dilution, total 8 doses were included; (3) make 2× compounds solution in assay medium by transferring 0.5 μl serial 500× stock solution into 125 μl assay medium; (4) 15 μl of 2× solution is added to cells and incubate at 37° C. for 1 h, the final compound conc. is 10000,2500,625,156.25,39,9.8,2.4 and 0.61 nM, respectively. After 1 h, cells were treated with 2.5 μl medium containing IL-6 at 37° C. (R&D systems, Cat #206-IL-010, final conc.50 ng/ml), 30 min. Following cells were lysed with 10 μl lysis buffer at RT, shaking on shaker for 1 h. 16 μL of cell lysate were transferred to a PE 384-well HTRF detection plate, and 4 μL of pre-mixed HTRF antibodies were added to each well. Covered the plate with a plate sealer, span 1000 rpm for 1 min, mix, Incubated overnight at room temperature. Read on BMG PheraStar with HTRF protocol (337 nm-665 nm-620 nm). IC 50 values were calculated by fitting dependent data to the four-parameter logistic model using dotmatics software. The assay was performed by using HTRF Phospho-STAT3(Tyr705) Cellular Assay Kit (Cisbio, Cat #62AT3PEG).

T1 sequence (P23458 561-860): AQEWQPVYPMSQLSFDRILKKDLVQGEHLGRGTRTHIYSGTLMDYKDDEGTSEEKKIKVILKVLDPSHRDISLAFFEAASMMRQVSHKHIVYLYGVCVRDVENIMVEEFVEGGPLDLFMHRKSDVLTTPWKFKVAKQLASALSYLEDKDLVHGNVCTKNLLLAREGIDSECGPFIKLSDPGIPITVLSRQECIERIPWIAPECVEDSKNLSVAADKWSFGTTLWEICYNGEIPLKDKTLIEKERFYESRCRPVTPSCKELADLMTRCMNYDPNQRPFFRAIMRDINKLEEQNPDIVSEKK

`CNC(=O)c1nnc(NC(=O)C2CC2)cc1Nc1nc2ccccc2o1` [Example A1, 4-(benzo[d]oxazol-2-ylamino)-6-(cyclopropanecarboxamido)-N-methylpyridazine-3-carboxamide]: the pIC50 in experiment [1] was below 5.00. Besides, in experiment [2], the pIC50 is 6.34 and the “Biochemical assay Selectivity fold (TYK2/JAK1)” value is recorded as above 22 fold.

With `CNC(=O)c1nnc(NC(=O)C2CC2)cc1Nc1nc2ccccc2n1C` [Example A2, 6-(cyclopropanecarboxamido)-N-methyl-4-((1-methyl-1H-benzo[d]imidazol-2-yl)amino) pyridazine-3-carboxamide], the pIC50 in experiment [1] is 6.76. Besides, in experiment [2], the pIC50 is 7.47 and the “Biochemical assay Selectivity fold (TYK2/JAK1)” value amounted to 5 fold.

Consider `CNC(=O)c1nnc(NC(=O)C2CC2)cc1Nc1nc2ccccc2[nH]1` [Example A3, 4-((1H-benzo [d]imidazol-2-yl)amino)-6-(cyclopropane-carboxamido)-N-methyl-pyridazine-3-carboxamide], for which the pIC50 in experiment [1] is 8.43. For the same molecule, in experiment [2], the pIC50 was 8.85 and the “Biochemical assay Selectivity fold (TYK2/JAK1)” value is 2.6 fold.

`CNC(=O)c1nnc(NC(=O)C2CC2)cc1Nc1nc2ccccn2n1` [Example A4, 4-([1,2,4]triazolo[1,5-a]pyridin-2-ylamino)-6-(cyclopropane-carboxamido)-N-methyl-pyridazine-3-carboxamide]: the pIC50 was 8.89 in experiment [1], 9.80 in experiment [2], 6.98 in experiment [3] and 5.62 in experiment [4]. Also, in experiment [2], the “Biochemical assay Selectivity fold (TYK2/JAK1)” value is 8 fold. Also, the “Cellular assay Selectivity fold (TYK2/JAK1)” value in experiment [3] is given as 23 fold.

With `CNC(=O)c1nnc(NC(=O)C2CC2)cc1Nc1nc2ccc(P(C)(C)=O)cn2n1` [Example A5, 6-(cyclopropanecarboxamido)-4-((6-(dimethylphosphoryl)-[1,2,4]triazolo[1,5-a]pyridin-2-yl)amino)-N-methyl-pyridazine-3-carboxamide], the pIC50 in experiment [1] was 7.89; in experiment [2], 9.25; in experiment [3] it was below 5.00; in experiment [4] it was below 5.00. The “Biochemical assay Selectivity fold (TYK2/JAK1)” value in experiment [2] was determined as 23 fold.

Consider `CNC(=O)c1nnc(NC(=O)C2CC2)cc1Nc1nc2cc(OC)c(N3CCC3)cn2n1` [Example B1, 4-((6-(azetidin-1-yl)-7-methoxy-[1,2,4]triazolo[1,5-a]pyridin-2-yl)amino)-6-(cyclopropanecarboxamido)-N-methylpyridazine-3-carboxamide], for which the pIC50 in experiment [1] is 8.69; in experiment [2] it was 9.03; in experiment [3] it was 5.45; in experiment [4], below 5.00. Besides, in experiment [2], the “Biochemical assay Selectivity fold (TYK2/JAK1)” value is reported as 2 fold. Besides, in experiment [3], the “Cellular assay Selectivity fold (TYK2/JAK1)” value was above 3 fold.

For `CNC(=O)c1nnc(NC(=O)C2CC2)cc1Nc1nc2ccc(OC3CN(C(=O)OC(C)(C)C)C3)cn2n1` [Example C1, tert-butyl 3-((2-((6-(cyclopropanecarboxamido)-3-(methylcarbamoyl)pyridazin-4-yl)amino)-[1,2,4]triazolo[1,5-a]pyridin-6-yl)oxy)azetidine-1-carboxylate], in experiment [1], the pIC50 was 8.89. Moreover, in experiment [2], the pIC50 was 10.00 and the “Biochemical assay Selectivity fold (TYK2/JAK1)” value worked out at 13 fold.

For `CNC(=O)c1nnc(NC(=O)C2CC2)cc1Nc1nc2ccc(OC3CNC3)cn2n1` [Example C2, 4-((6-(azetidin-3-yloxy)-[1,2,4]triazolo[1,5-a]pyridin-2-yl)amino)-6-(cyclopropanecarboxamido)-N-methylpyridazine-3-carboxamide], the pIC50 in experiment [1] is 8.92. For the same molecule, in experiment [2], the pIC50 was 9.85 and the “Biochemical assay Selectivity fold (TYK2/JAK1)” value amounted to 9 fold.

Take `CNC(=O)c1nnc(NC(=O)C2CC2)cc1Nc1nc2ccc(N3CCC(N4CCC4)CC3)cn2n1` [Example E11, 4-((6-(4-(azetidin-1-yl)piperidin-1-yl)-[1,2,4]triazolo[1,5-a]pyridin-2-yl)amino)-6-(cyclopropanecarbox-amido)-N-methyl-pyridazine-3-carboxamide]: the pIC50 in experiment [1] is 8.24. In experiment [2], the pIC50 was 9.74 and the “Biochemical assay Selectivity fold (TYK2/JAK1)” value came to 32 fold.
